Measured values published in patent US9766197B2, “Methods for generating pH/ionic concentration gradient near electrode surfaces for modulating biomolecular interactions, and bubble detection using electrodes” (Robert Bosch GmbH, priority 2014, dated 2017).

Assays:
[1] = Electrochemical modulation of pH at ITO working electrode monitored by GFP fluorescence intensity; type: physicochemical
From the text: After current was turned off, the pH recovered to neutral value within 50 seconds.
Electrode material used: The electrode material was indium tin oxide. The fluorescent protein used is GFP immobilized on a glass substrate which includes an array of electrodes. The GFP is applied as spots, each spot covers an area that overlaps with one electrode and an area that is not overlapping with an electrode.
The pH change at the surface of ITO working electrode is generated via current-driven oxidation of a redox active molecule, 2-methyl-1,4-dihydroquinone, in diluted phosphate buffer (pH=7.4) containing 0.1M Na2SO4. […] FIG. 10 is used as calibration curve to assess the pH values.

[2] = Electro-oxidation of ascorbic acid at indium tin oxide electrode (cyclic voltammetry); type: physicochemical; conditions: Indium tin oxide vs Ag/AgCl reference electrode
From the text: FIG. 7B: Cyclic voltammetric study of the oxidation of Ascorbic acid test in ITO electrodes.
(§1) Electrode material used: The electrode material was indium tin oxide. This is a semiconducting electrode surface with very large potential window in an aqueous solution.
Oxidation of ascorbic acid at the electrode surfaces produced H^+ ions and changed the electrode surface pH to a more acidic state: AH2→A+2H^++2e^−, where AH2 is ascorbic acid ([…]) (as shown in FIG. 5). The electrode potential at which it oxidizes was less than 0.5V for Indium tin oxide material vs Ag/AgCl reference electrode (as shown in FIG. 7). This potential was less than the voltages needed for the oxygen evolution reaction in aqueous solution. The ascorbic acid also acted as a sacrificial species to prevent electrochemical degradation of the surface chemistry.

[3] = Electro-reduction of benzoquinone into hydroquinone to produce OH- ions; type: physicochemical
From the text: as §1
Reduction of benzoquinone (C6H4O2) into Hydroquinone (C6H6O2) can produce OH^− ions at −0.1V: BQ+2e^−+2H2O→HQ+2OH^− This reduction reaction increased the pH at the electrode interface.

[4] = target: Green Fluorescent Protein (GFP) (Aequorea victoria, UniProt P42212); test: Fluorescence intensity of GFP after incubation with benzoquinones (protein stability); type: biochemical; conditions: 0.5 mM benzoquinone, phosphate buffered saline, 30 min
From the text: Para-benzoquinones and ortho-benzoquinones (compounds 2, 4, 6, and 9 in FIG. 31) are susceptible to nucleophilic attack at the double bond of the ring (positions 2, 3, 5 and 6 in structure 2 of FIG. 31, positions 3, 4, 5 and 6 in structure 4 of FIG. 31, and positions 2 and 3 in structure 6 of FIG. 31). Introducing substituents at some or all of those positions can mitigate the problem of nucleophilic attack. For example, 1,4-benzoquinone (structure 2 in FIG. 31, where R1, R2, R3 and R4 are H) undergoes Michael addition reaction with amino groups of proteins (Loomis et al., Phytochemistry, 5, 423, (1966) and U.S. Pat. No. 6,753,312 B2). […] Fluorescence intensity of Green Fluorescent Protein (GFP) was measured after incubation with three different benzoquinones in phosphate buffered saline for 30 min (concentration of benzoquinones was 0.5 mM). The difference in fluorescence intensity indicates the varied effect that the different substitutions in benzoquinones have on the stability of GFP. Fluorescence intensity of GFP is indicative of its structural integrity. Losses in fluorescence intensity usually indicate loss of its tertiary structure (protein denaturation) (Yin D. X., Zhu L., Schimke R. T. Anal. Biochem. 1996, 235:195-201).

SMILES: Cc1cc(O)ccc1O [2-methyl-1,4-dihydroquinone]
- solution pH after current-driven oxidation ([1]; 50 microamps for 30 second, diluted phosphate buffer pH 7.4, 0.1M Na2SO4, ITO working electrode): 5.5
- time for pH to recover to neutral value after current was turned off ([1]; diluted phosphate buffer pH 7.4, 0.1M Na2SO4): ≤ 50 seconds

SMILES: O=C1O[C@H]([C@@H](O)CO)C(O)=C1O [ascorbic acid]
- electrode potential at which it oxidizes [2]: less than 0.5 V

SMILES: O=C1C=CC(=O)C=C1 [unsubstituted benzoquinone, 1,4-benzoquinone]
- potential of reduction producing OH- ions [3]: −0.1 V
- loss in GFP fluorescence intensity after incubation [4]: 25%
